Measurements reported in US12668600B2 (Kumquat Biosciences Inc., priority 2023, dated 2026).

How the values were obtained:
Type in all cases: biochemical
[1] = target: T1, KRAS G12D (Homo sapiens, UniProt P01116, G12D); experiment: HTRF KRAS-SOS1 interaction assay, KRAS G12D; conditions: binned ≤2 μM / >2 μM, read-out: Inhibition of KRAS G12D (IC50)
T1 construct: made in house; host or cells: E. coli, e.g. BL21 (DE3)
Source text: (§1) This assay can be also used to assess a selective inhibition or reduction of signaling output of a mutant Ras protein relative to a wildtype, or relative to a different mutant Ras protein. For example, the equilibrium interaction of wildtype KRAS or K-Ras mutant (e.g., wildtype or a mutant thereof) with SOS1 (e.g., hSOS1) can be assessed as a proxy or an indication for the ability of a subject compound to bind and inhibit Ras protein. The HTRF assay detects from (i) a fluorescence resonance energy transfer (FRET) donor (e.g., antiGST-Europium) that is bound to GST-tagged K-Ras mutant to (ii) a FRET acceptor (e.g., anti-6His-XL665) bound to a His-tagged hSOS1.
(§2) The assay buffer can contain ˜5 mM HEPES pH 7.4, ˜150 mM NaCl, ˜1 mM DTT, 0.05% BSA and 0.0025% (v/v) Igepal. A Ras working solution is prepared in an assay buffer containing typically a suitable amount of the protein construct (e.g., GST-tagged K-Ras mutant) and the FRET donor (e.g., antiGST-Eu (K) from Cisbio, France). A SOS1 working solution is prepared in an assay buffer containing suitable amount of the protein construct (e.g., His-hSOS1) and the FRET acceptor (e.g., anti-6His-XL665 from Cisbio, France). A suitable amount of the protein construct will depend on the range of activity or range of IC50 values being detected or under investigation. For detecting an IC50 within a range of 500 nM, the protein constructs of the same range of molarity can be utilized.
(§3) A fixed volume of DMSO with or without test compound is transferred into a 384-well plate. Ras working solution is added to all wells of the test plate. SOS1 working solution is added to all wells except for those that are subsequently filled with inhibitor control solution. Upon incubation for about 10 minutes or longer, the fluorescence is measured with a M1000Pro plate reader (Tecan) using HTRF detection (excitation 337 nm, emission 1:620 nm, emission 2:665 nm). Compounds are tested in duplicate at different concentrations (for example, 10 μM, 2.5 μM, 0.63 μM, 0.16 μM, 0.04 μM, 0.01 μM test compound). The ratiometric data (i.e., emission 2 divided by emission 1) is used to calculate IC50 values against Ras using GraphPad Prism (GraphPad software). Signaling output measured in terms of IC50 values can be obtained and a ratio of IC50 against one mutant relative to another mutant can be calculated.

[2] = target: T2, KRAS WT (Homo sapiens, UniProt P01116); experiment: HTRF KRAS-SOS1 interaction assay, wildtype KRAS; conditions: binned ≤2 μM / >2 μM, read-out: Inhibition of KRAS WT (IC50)
T2 construct: made in house; host or cells: E. coli, e.g. BL21 (DE3)
T2 sequence (P01116 1-188 isoform P01116-2): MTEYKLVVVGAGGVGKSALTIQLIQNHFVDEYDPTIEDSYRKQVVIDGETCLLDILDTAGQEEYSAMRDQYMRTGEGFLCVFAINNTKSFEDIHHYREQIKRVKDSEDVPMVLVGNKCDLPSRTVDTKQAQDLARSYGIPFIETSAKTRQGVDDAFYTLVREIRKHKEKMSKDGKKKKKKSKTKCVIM
Source text: as §1, §2, §3

[3] = target: T3, KRAS G12V (Homo sapiens, UniProt P01116, G12V); experiment: HTRF KRAS-SOS1 interaction assay, KRAS G12V; conditions: binned ≤2 μM / >2 μM, read-out: Inhibition of KRAS G12V (IC50)
T3 construct: made in house; host or cells: E. coli, e.g. BL21 (DE3)
T3 sequence (P01116 1-188 isoform P01116-2 G12V): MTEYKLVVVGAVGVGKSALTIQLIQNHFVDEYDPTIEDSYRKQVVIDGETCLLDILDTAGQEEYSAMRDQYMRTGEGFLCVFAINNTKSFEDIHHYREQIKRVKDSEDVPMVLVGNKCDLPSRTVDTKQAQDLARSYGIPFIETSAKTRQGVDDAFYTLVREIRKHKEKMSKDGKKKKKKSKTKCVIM
Source text: as §1, §2, §3

[4] = target: T4, KRAS G12S (Homo sapiens, UniProt P01116, G12S); experiment: HTRF KRAS-SOS1 interaction assay, KRAS G12S; conditions: binned ≤2 μM / >2 μM, read-out: Inhibition of KRAS G12S (IC50)
T4 construct: made in house; host or cells: E. coli, e.g. BL21 (DE3)
T4 sequence (P01116 1-188 isoform P01116-2 G12S): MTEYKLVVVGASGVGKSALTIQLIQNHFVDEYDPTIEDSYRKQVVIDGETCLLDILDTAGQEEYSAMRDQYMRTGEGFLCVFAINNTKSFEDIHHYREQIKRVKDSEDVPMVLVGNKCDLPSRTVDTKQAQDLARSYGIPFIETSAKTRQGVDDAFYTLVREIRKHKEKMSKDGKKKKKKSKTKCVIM
Source text: as §1, §2, §3

T1 sequence (P01116 1-188 isoform P01116-2 G12D): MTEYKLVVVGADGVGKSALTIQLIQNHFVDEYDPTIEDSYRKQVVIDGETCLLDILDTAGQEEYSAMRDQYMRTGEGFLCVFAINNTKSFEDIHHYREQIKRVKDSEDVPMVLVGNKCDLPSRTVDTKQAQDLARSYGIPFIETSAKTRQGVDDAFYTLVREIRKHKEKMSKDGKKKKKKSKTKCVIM

SMILES	IC50 [1]	IC50 [2]	IC50 [3]	IC50 [4]
N#Cc1c(N)sc2c(F)ccc(-c3c(C(F)(F)F)c4c5c(nc(OC[C@@]67CCCN6C[C@H](F)C7)nc5c3F)N([C@H](CCC(F)(F)F)c3cc(Cl)cnc3N)CCO4)c12 [Compound 874, 2-amino-4-(4-((R)-1-(2-amino-5-chloropyridin-3-yl)-4,4,4-trifluorobutyl)-10-fluoro-2-(((2R,7aS)-2-fluorotetrahydro-1H-pyrrolizin-7a(5H)-yl)methoxy)-8-(trifluoromethyl)-5,6-dihydro-4H-[1,4]oxazepino[5,6,7-de]quinazolin-9-yl)-7-fluorobenzo[b]thiophene-3-carbonitrile]	≤ 2000 nM	≤ 2000 nM	≤ 2000 nM	≤ 2000 nM
N#Cc1c(N)sc2c(F)ccc(-c3c(C(F)(F)F)c4c5c(nc(OC[C@@]67CCCN6C[C@@]6(CC6(F)F)C7)nc5c3F)N([C@H](CC3CCOCC3)c3cccnc3N)CCO4)c12 [Compound 855, 2-amino-4-(4-((R)-1-(2-aminopyridin-3-yl)-2-(tetrahydro-2H-pyran-4-yl)ethyl)-2-(((1S,7a′S)-2,2-difluorodihydro-1′H,3′H-spiro[cyclopropane-1,2′-pyrrolizin]-7a′(5′H)-yl)methoxy)-10-fluoro-8-(trifluoromethyl)-5,6-dihydro-4H-[1,4]oxazepino[5,6,7-de]quinazolin-9-yl)-7-fluorobenzo[b]thiophene-3-carbonitrile]	≤ 2000 nM	≤ 2000 nM	≤ 2000 nM	≤ 2000 nM
C[C@H](c1cc(Cl)cnc1N)N1CCOc2c(C(F)(F)F)c(-c3ccc(F)c4sc(N)c(C#N)c34)c(F)c3nc(OCC4(CN5CCC(F)CC5)CC4)nc1c23 [Compound 830, 2-amino-4-(4-((R)-1-(2-amino-5-chloropyridin-3-yl)ethyl)-10-fluoro-2-((1-((4-fluoropiperidin-1-yl)methyl)cyclopropyl)methoxy)-8-(trifluoromethyl)-5,6-dihydro-4H-[1,4]oxazepino[5,6,7-de]quinazolin-9-yl)-7-fluorobenzo[b]thiophene-3-carbonitrile]	≤ 2000 nM	≤ 2000 nM	≤ 2000 nM	≤ 2000 nM
C[C@H](c1cncnc1N)N1CCOc2c(C(F)(F)F)c(-c3ccc(F)c4sc(N)c(C#N)c34)c(F)c3nc(OC[C@@]45CCCN4C[C@H](F)C5)nc1c23 (single isomer, unassigned) [Compound 777]	≤ 2000 nM	≤ 2000 nM	≤ 2000 nM	≤ 2000 nM
N#Cc1c(N)sc2c(F)ccc(-c3c(C(F)(F)F)c4c5c(nc(OC[C@@]67CCCN6C[C@@]6(CC6(F)F)C7)nc5c3F)N([C@H](CCC(F)(F)F)c3cc(F)cnc3N)CCO4)c12 [Compound 617, 2-amino-4-(4-((R)-1-(2-amino-5-fluoropyridin-3-yl)-4,4,4-trifluorobutyl)-2-(((1S,7a′S)-2,2-difluorodihydro-1′H,3′H-spiro[cyclopropane-1,2′-pyrrolizin]-7a′(5′H)-yl)methoxy)-10-fluoro-8-(trifluoromethyl)-5,6-dihydro-4H-[1,4]oxazepino[5,6,7-de]quinazolin-9-yl)-7-fluorobenzo[b]thiophene-3-carbonitrile]	≤ 2000 nM	≤ 2000 nM	≤ 2000 nM	≤ 2000 nM
C=C1CN2CCC[C@@]2(COc2nc3c4c(c(C(F)(F)F)c(-c5ccc(F)c6sc(N)c(C#N)c56)c(F)c4n2)OCCN3[C@H](C)c2cncnc2N)C1 [Compound 680, 2-amino-4-(4-((R)-1-(4-aminopyrimidin-5-yl)ethyl)-10-fluoro-2-(((S)-2-methylenetetrahydro-1H-pyrrolizin-7a(5H)-yl)methoxy)-8-(trifluoromethyl)-5,6-dihydro-4H-[1,4]oxazepino[5,6,7-de]quinazolin-9-yl)-7-fluorobenzo[b]thiophene-3-carbonitrile]	≤ 2000 nM	≤ 2000 nM	≤ 2000 nM	≤ 2000 nM

The remaining lines, values ahead:

IC50 [1]	IC50 [2]	IC50 [3]	IC50 [4]	SMILES
≤ 2000 nM	≤ 2000 nM	≤ 2000 nM	≤ 2000 nM	CN(C)C(=O)C[C@H](c1cccnc1N)N1CCOc2c(C(F)(F)F)c(-c3ccc(F)c4sc(N)c(C#N)c34)c(F)c3nc(OC[C@@]45CCCN4C[C@H](F)C5)nc1c23 [Compound 810, (3R)-3-(9-(2-amino-3-cyano-7-fluorobenzo[b]thiophen-4-yl)-10-fluoro-2-(((2R,7aS)-2-fluorotetrahydro-1H-pyrrolizin-7a(5H)-yl)methoxy)-8-(trifluoromethyl)-5,6-dihydro-4H-[1,4]oxazepino[5,6,7-de]quinazolin-4-yl)-3-(2-aminopyridin-3-yl)-N,N-dimethylpropanamide]
≤ 2000 nM	≤ 2000 nM	≤ 2000 nM	≤ 2000 nM	C=C(F)[C@H](c1cccnc1N)N1CCOc2c(Cl)c(-c3ccc(F)c4sc(N)c(C#N)c34)c(F)c3nc(OC[C@@]45CCCN4C[C@H](F)C5)nc1c23 [Compound 694, 2-amino-4-(4-((S)-1-(2-aminopyridin-3-yl)-2-fluoroallyl)-8-chloro-10-fluoro-2-(((2R,7aS)-2-fluorotetrahydro-1H-pyrrolizin-7a(5H)-yl)methoxy)-5,6-dihydro-4H-[1,4]oxazepino[5,6,7-de]quinazolin-9-yl)-7-fluorobenzo[b]thiophene-3-carbonitrile]
≤ 2000 nM	≤ 2000 nM	≤ 2000 nM	≤ 2000 nM	C[C@H](c1cccnc1N)N1CCOc2nc(-c3ccc(F)c4sc(N)c(C#N)c34)c(F)c3nc(OC[C@@H]4CCCN4C)nc1c23 (single isomer, unassigned) [Compound 651]
≤ 2000 nM	≤ 2000 nM	≤ 2000 nM	≤ 2000 nM	N#Cc1c(N)sc2c(F)ccc(-c3c(C(F)(F)F)c4c5c(nc(OC[C@@]67CCCN6CC(=C(F)F)C7)nc5c3F)N([C@H](CCC3CCOCC3)c3cccnc3N)CCO4)c12 [Compound 808, 2-amino-4-(4-((R)-1-(2-aminopyridin-3-yl)-3-(tetrahydro-2H-pyran-4-yl)propyl)-2-(((S)-2-(difluoromethylene)tetrahydro-1H-pyrrolizin-7a(5H)-yl)methoxy)-10-fluoro-8-(trifluoromethyl)-5,6-dihydro-4H-[1,4]oxazepino[5,6,7-de]quinazolin-9-yl)-7-fluorobenzo[b]thiophene-3-carbonitrile]
≤ 2000 nM	≤ 2000 nM	≤ 2000 nM	≤ 2000 nM	CC(=O)c1c(F)ccc2cc(O)cc(-c3nc4c5c(nc(OC[C@@H]6CCCN6C)nc5c3F)N(C(C)c3cccnc3N)CCO4)c12 (single isomer, unassigned) [Compound 750]
≤ 2000 nM	≤ 2000 nM	≤ 2000 nM	≤ 2000 nM	C[S+]([O-])CCC[C@H](c1cccnc1N)N1CCOc2c(C(F)(F)F)c(-c3ccc(F)c4sc(N)c(C#N)c34)c(F)c3nc(OC[C@@]45CCCN4C[C@H](F)C5)nc1c23 (mixture of isomers) [Compound 691, 2-amino-4-(4-((1R)-1-(2-aminopyridin-3-yl)-4-(methylsulfinyl)butyl)-10-fluoro-2-(((2R,7aS)-2-fluorotetrahydro-1H-pyrrolizin-7a(5H)-yl)methoxy)-8-(trifluoromethyl)-5,6-dihydro-4H-[1,4]oxazepino[5,6,7-de]quinazolin-9-yl)-7-fluorobenzo[b]thiophene-3-carbonitrile]
≤ 2000 nM	≤ 2000 nM	≤ 2000 nM	≤ 2000 nM	C[C@H](c1cccnc1N)N1CCOc2c(Cl)c(-c3ccc(F)c4sc(N)c(C#N)c34)c(F)c3nc(OC[C@@]45CCCN4CC(=NOCC(F)(F)F)C5)nc1c23 (mixture of isomers) [Compound 917, 2-amino-4-(4-((R)-1-(2-aminopyridin-3-yl)ethyl)-8-chloro-10-fluoro-2-(((S)-2-((2,2,2-trifluoroethoxy)imino)tetrahydro-1H-pyrrolizin-7a(5H)-yl)methoxy)-5,6-dihydro-4H-[1,4]oxazepino[5,6,7-de]quinazolin-9-yl)-7-fluorobenzo[b]thiophene-3-carbonitrile]
